The supplement of paper PMC10307832

Tests used:
Assay in all cases: relative viability (nuclei count vs DMSO), 5 days (fraction); higher = more cells survive
[1] = system: SK-MES-1
In short: (§1)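 Relative viability is defined as nuclei in treated wells over nuclei in vehicle wells. Duplicate plates were run and medians reported. Lung cancer cell lines in 1536-well plates were dosed by pin tool one day after seeding, with one drug or with a fixed anchor-drug dose plus five library-drug doses (not always all listed) in √10 steps, and nuclei were counted after 5 days.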

[2] = system: NCI-H2347
In short: as §1

[3] = system: HCC-15
In short: as §1

[4] = system: COR-L 105
In short: as §1

[5] = system: UMC-11
In short: as §1

[6] = system: NCI-H838
In short: as §1

[7] = system: HARA
In short: as §1

[8] = system: NCI-H2009
In short: as §1

[9] = system: COR-L23
In short: as §1

[10] = system: NCI-H1792
In short: as §1

[11] = system: NCI-H522
In short: as §1

[12] = system: HOP-62
In short: as §1

[13] = system: NCI-H2170
In short: as §1

[14] = system: NCI-H647
In short: as §1

[15] = system: NCI-H1355
In short: as §1

[16] = system: NCI-H2228
In short: as §1

[17] = system: NCI-H1793
In short: as §1

[18] = system: NCI-H1395
In short: as §1

[19] = system: NCI-H1734
In short: as §1

[20] = system: NCI-H358
In short: as §1

[21] = system: NCI-H1993
In short: as §1

[22] = system: NCI-H1755
In short: as §1

## CC(=O)O[C@@]12CO[C@@H]1C[C@H](O)[C@@]1(C)C(=O)[C@H](O)C3=C(C)[C@@H](OC(=O)[C@H](O)[C@@H](NC(=O)OC(C)(C)C)c4ccccc4)C[C@@](O)([C@@H](OC(=O)c4ccccc4)[C@H]21)C3(C)C [Docetaxel] + CC(=O)c1c(C)c2cnc(Nc3ccc(N4CCNCC4)cn3)nc2n(C2CCCC2)c1=O [Palbociclib] (partner 0.5 µM)
[1]; first compound 0.0002 µM
  relative viability: 0.401
[1]; first compound 0.000632 µM
  relative viability: 0.444
[1]; first compound 0.002 µM
  relative viability: 0.382
[1]; first compound 0.006325 µM
  relative viability: 0.303
[1]; first compound 0.02 µM
  relative viability: 0.176
[2]; first compound 0.0002 µM
  relative viability: 0.375
[2]; first compound 0.000632 µM
  relative viability: 0.429
[2]; first compound 0.002 µM
  relative viability: 0.408
[2]; first compound 0.006325 µM
  relative viability: 0.373
[2]; first compound 0.02 µM
  relative viability: 0.343
[3]; first compound 0.0002 µM
  relative viability: 0.643
[3]; first compound 0.000632 µM
  relative viability: 0.383
[3]; first compound 0.002 µM
  relative viability: 0.228
[3]; first compound 0.006325 µM
  relative viability: 0.247
[4]; first compound 0.0002 µM
  relative viability: 0.393
[4]; first compound 0.000632 µM
  relative viability: 0.403
[4]; first compound 0.002 µM
  relative viability: 0.368
[4]; first compound 0.006325 µM
  relative viability: 0.353
[4]; first compound 0.02 µM
  relative viability: 0.338
[5]; first compound 0.0002 µM
  relative viability: 0.322
[5]; first compound 0.000632 µM
  relative viability: 0.357
[5]; first compound 0.002 µM
  relative viability: 0.294
[5]; first compound 0.006325 µM
  relative viability: 0.266
[5]; first compound 0.02 µM
  relative viability: 0.234
[6]; first compound 0.0002 µM
  relative viability: 0.223
[6]; first compound 0.000632 µM
  relative viability: 0.251
[6]; first compound 0.002 µM
  relative viability: 0.209
[6]; first compound 0.006325 µM
  relative viability: 0.176
[6]; first compound 0.02 µM
  relative viability: 0.133
[7]; first compound 0.0002 µM
  relative viability: 0.222
[7]; first compound 0.000632 µM
  relative viability: 0.189
[7]; first compound 0.002 µM
  relative viability: 0.168
[7]; first compound 0.006325 µM
  relative viability: 0.128
[7]; first compound 0.02 µM
  relative viability: 0.0982
[8]; first compound 0.0002 µM
  relative viability: 0.135
[8]; first compound 0.000632 µM
  relative viability: 0.234
[8]; first compound 0.002 µM
  relative viability: 0.192
[8]; first compound 0.006325 µM
  relative viability: 0.202
[8]; first compound 0.02 µM
  relative viability: 0.127
[9]; first compound 0.0002 µM
  relative viability: 0.299
[9]; first compound 0.000632 µM
  relative viability: 0.262
[9]; first compound 0.002 µM
  relative viability: 0.142
[9]; first compound 0.006325 µM
  relative viability: 0.141
[9]; first compound 0.02 µM
  relative viability: 0.108
[10]; first compound 0.0002 µM
  relative viability: 0.651
[10]; first compound 0.000632 µM
  relative viability: 0.639
[10]; first compound 0.002 µM
  relative viability: 0.543
[10]; first compound 0.006325 µM
  relative viability: 0.367
[10]; first compound 0.02 µM
  relative viability: 0.213
[11]; first compound 0.0002 µM
  relative viability: 1.11
[11]; first compound 0.000632 µM
  relative viability: 0.795
[11]; first compound 0.002 µM
  relative viability: 0.758
[11]; first compound 0.006325 µM
  relative viability: 0.565
[11]; first compound 0.02 µM
  relative viability: 0.311
[12]; first compound 0.0002 µM
  relative viability: 0.461
[12]; first compound 0.000632 µM
  relative viability: 0.353
[12]; first compound 0.002 µM
  relative viability: 0.284
[12]; first compound 0.02 µM
  relative viability: 0.156
[13]; first compound 0.0002 µM
  relative viability: 0.409
[13]; first compound 0.000632 µM
  relative viability: 0.383
[13]; first compound 0.002 µM
  relative viability: 0.306
[13]; first compound 0.006325 µM
  relative viability: 0.188
[13]; first compound 0.02 µM
  relative viability: 0.171
[14]; first compound 0.0002 µM
  relative viability: 0.3
[14]; first compound 0.000632 µM
  relative viability: 0.387
[14]; first compound 0.002 µM
  relative viability: 0.11
[14]; first compound 0.006325 µM
  relative viability: 0.0808
[14]; first compound 0.02 µM
  relative viability: 0.062
[15]; first compound 0.0002 µM
  relative viability: 0.374
[15]; first compound 0.000632 µM
  relative viability: 0.402
[15]; first compound 0.002 µM
  relative viability: 0.29
[15]; first compound 0.02 µM
  relative viability: 0.176
[16]; first compound 0.0002 µM
  relative viability: 0.52
[16]; first compound 0.000632 µM
  relative viability: 0.251
[16]; first compound 0.002 µM
  relative viability: 0.195
[16]; first compound 0.006325 µM
  relative viability: 0.137
[16]; first compound 0.02 µM
  relative viability: 0.129
[17]; first compound 0.0002 µM
  relative viability: 0.242
[17]; first compound 0.000632 µM
  relative viability: 0.358
[17]; first compound 0.002 µM
  relative viability: 0.347
[17]; first compound 0.006325 µM
  relative viability: 0.266
[17]; first compound 0.02 µM
  relative viability: 0.208
[18]; first compound 0.0002 µM
  relative viability: 0.589
[18]; first compound 0.000632 µM
  relative viability: 0.638
[18]; first compound 0.002 µM
  relative viability: 0.5
[18]; first compound 0.006325 µM
  relative viability: 0.42
[18]; first compound 0.02 µM
  relative viability: 0.274
[19]; first compound 0.0002 µM
  relative viability: 0.321
[19]; first compound 0.000632 µM
  relative viability: 0.336
[19]; first compound 0.002 µM
  relative viability: 0.281
[19]; first compound 0.006325 µM
  relative viability: 0.314
[19]; first compound 0.02 µM
  relative viability: 0.23
[20]; first compound 0.0002 µM
  relative viability: 0.16
[20]; first compound 0.000632 µM
  relative viability: 0.173
[20]; first compound 0.002 µM
  relative viability: 0.142
[20]; first compound 0.006325 µM
  relative viability: 0.126
[20]; first compound 0.02 µM
  relative viability: 0.111
[21]; first compound 0.0002 µM
  relative viability: 0.799
[21]; first compound 0.000632 µM
  relative viability: 0.708
[21]; first compound 0.002 µM
  relative viability: 0.686
[21]; first compound 0.006325 µM
  relative viability: 0.538
[21]; first compound 0.02 µM
  relative viability: 0.307
[22]; first compound 0.0002 µM
  relative viability: 0.466
[22]; first compound 0.000632 µM
  relative viability: 0.489
[22]; first compound 0.002 µM
  relative viability: 0.5
[22]; first compound 0.006325 µM
  relative viability: 0.41
[22]; first compound 0.02 µM
  relative viability: 0.406
